Tests used:
[1] = target: Sodium-dependent dopamine transporter (Rattus norvegicus, UniProt P23977); assay: Inhibitory constant against reuptake of [3H]-DA at dopamine transporter of rat striatal membranes; format: cell membranes, Membrane
[2] = target: Sodium-dependent serotonin transporter (Rattus norvegicus, UniProt P31652); assay: Inhibitory constant against reuptake of [3H]5-HT at serotonin transporter of rat […]; format: tissue-based
[3] = target: Muscarinic acetylcholine receptor; assay: Inhibition of [3H]QNB binding to muscarinic receptor of rat cortex
[4] = target: T1, Norepinephrine transporter (Rattus norvegicus, UniProt Q9WTR4); assay: Inhibitory constant against reuptake of [3H]NE at norepinephrine transporter of rat parietal-occipital cortex
T1 sequence (Q9WTR4 whole entry): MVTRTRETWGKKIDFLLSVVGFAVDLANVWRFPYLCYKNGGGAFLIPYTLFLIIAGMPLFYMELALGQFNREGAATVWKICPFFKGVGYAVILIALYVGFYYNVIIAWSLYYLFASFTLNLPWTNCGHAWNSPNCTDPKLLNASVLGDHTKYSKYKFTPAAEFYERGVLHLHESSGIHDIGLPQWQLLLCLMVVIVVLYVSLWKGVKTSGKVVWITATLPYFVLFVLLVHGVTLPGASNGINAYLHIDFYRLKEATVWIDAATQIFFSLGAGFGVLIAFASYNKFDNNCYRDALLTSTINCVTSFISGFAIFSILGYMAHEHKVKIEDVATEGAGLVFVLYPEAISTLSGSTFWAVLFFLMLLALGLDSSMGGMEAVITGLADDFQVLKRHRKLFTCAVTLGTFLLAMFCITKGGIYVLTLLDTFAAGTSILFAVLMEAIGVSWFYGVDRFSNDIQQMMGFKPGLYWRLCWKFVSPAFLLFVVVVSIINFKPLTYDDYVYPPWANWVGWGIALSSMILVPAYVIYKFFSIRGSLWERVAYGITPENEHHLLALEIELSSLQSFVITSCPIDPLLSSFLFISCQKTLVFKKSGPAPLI

[5] = target: T1, Norepinephrine transporter; assay: Inhibitory constant for [3H]NE reuptake at norepinephrine transporter of rat parietal-occipital cortex

Chain of Sodium-dependent serotonin transporter (P31652 whole entry): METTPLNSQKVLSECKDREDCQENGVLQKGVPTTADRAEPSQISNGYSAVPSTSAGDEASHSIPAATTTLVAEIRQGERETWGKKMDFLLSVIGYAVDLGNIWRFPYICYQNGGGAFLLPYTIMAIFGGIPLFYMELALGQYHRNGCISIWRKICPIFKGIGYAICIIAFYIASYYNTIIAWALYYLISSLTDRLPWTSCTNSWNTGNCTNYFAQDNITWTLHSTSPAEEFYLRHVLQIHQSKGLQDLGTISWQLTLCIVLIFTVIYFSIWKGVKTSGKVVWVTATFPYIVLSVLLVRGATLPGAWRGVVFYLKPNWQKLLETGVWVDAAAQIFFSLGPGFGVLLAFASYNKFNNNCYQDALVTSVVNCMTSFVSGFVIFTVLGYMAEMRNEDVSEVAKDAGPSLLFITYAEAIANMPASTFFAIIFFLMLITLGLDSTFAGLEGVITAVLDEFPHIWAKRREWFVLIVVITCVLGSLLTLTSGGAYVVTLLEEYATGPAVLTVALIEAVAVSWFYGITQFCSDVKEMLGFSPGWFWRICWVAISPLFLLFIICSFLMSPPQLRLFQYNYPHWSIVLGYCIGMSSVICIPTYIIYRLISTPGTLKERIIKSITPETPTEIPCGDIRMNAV
Chain of Sodium-dependent dopamine transporter (P23977 whole entry): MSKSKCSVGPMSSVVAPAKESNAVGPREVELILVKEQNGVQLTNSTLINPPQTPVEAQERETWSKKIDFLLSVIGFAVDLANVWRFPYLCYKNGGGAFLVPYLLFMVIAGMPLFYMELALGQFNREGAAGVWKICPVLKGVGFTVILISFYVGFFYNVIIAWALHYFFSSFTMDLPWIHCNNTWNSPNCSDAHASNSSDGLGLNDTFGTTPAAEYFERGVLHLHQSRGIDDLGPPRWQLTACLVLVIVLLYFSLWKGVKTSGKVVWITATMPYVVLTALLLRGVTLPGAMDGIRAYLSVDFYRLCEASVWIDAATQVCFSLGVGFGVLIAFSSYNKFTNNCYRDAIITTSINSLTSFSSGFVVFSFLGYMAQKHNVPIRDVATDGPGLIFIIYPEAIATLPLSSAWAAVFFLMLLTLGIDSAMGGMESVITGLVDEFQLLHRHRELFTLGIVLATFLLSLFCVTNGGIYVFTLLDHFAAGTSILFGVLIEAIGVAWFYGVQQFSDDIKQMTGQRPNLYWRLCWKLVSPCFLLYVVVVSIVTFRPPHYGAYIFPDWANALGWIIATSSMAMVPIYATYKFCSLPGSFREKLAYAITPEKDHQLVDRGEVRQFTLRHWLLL

## COC(=O)C1C2CC3CCC1N3C/C2=C\c1ccc(-c2ccccc2F)cc1 (configuration not stated)
[1]
  Ki: 3.4 µM
[2]
  Ki: 0.466 µM
[3]
  Ki: > 10 µM
[4]
  Ki: 0.393 µM

## COC(=O)C1C2CC3CCC1N3C/C2=C\C#Cc1cccc(F)c1 (configuration not stated)
[1]
  Ki: > 10 µM
[2]
  Ki: 0.317 µM
[3]
  Ki: 13.5 µM
[4]
  Ki: 2.11 µM

## COC(=O)C1C2CC3CCC1N3C/C2=C\C#Cc1ccccc1 (configuration not stated)
[1]
  Ki: > 10 µM
[2]
  Ki: 0.207 µM
[3]
  Ki: 11.9 µM
[4]
  Ki: > 10 µM

## COC(=O)C1C2CC3CCC1N3C/C2=C\C#Cc1ccsc1 (configuration not stated)
[5]
  Ki: 0.022 µM
[1]
  Ki: > 10 µM
[2]
  Ki: 0.086 µM
[3]
  Ki: 2.74 µM

## COC(=O)C1C2CC3CCC1N3C/C2=C\C#Cc1ccc(F)c(F)c1 (configuration not stated)
[1]
  Ki: 3.15 µM
[2]
  Ki: 0.069 µM
[3]
  Ki: 7.09 µM
[4]
  Ki: 0.11 µM

## COC(=O)C1C2CC3CCC1N3C/C2=C\c1ccc(-c2cccc(C(F)(F)F)c2)cc1 (configuration not stated)
[1]
  Ki: 0.556 µM
[2]
  Ki: 1.17 µM
[3]
  Ki: 7.06 µM
[4]
  Ki: 0.0088 µM

## COC(=O)C1C2CC3CCC1N3C/C2=C\c1ccc(-c2ccsc2)s1 (configuration not stated)
[1]
  Ki: 0.114 µM
[2]
  Ki: 0.032 µM
[3]
  Ki: 2.14 µM
[4]
  Ki: 0.0059 µM

## COC(=O)C1C2CC3CCC1N3C/C2=C\C#Cc1c(F)cccc1F (configuration not stated)
[1]
  Ki: > 10 µM
[2]
  Ki: 0.032 µM
[3]
  Ki: > 10 µM
[4]
  Ki: 0.0053 µM

## COC(=O)C1C2CC3CCC1N3C/C2=C\c1ccc(-c2cccc(F)c2)cc1 (configuration not stated)
[1]
  Ki: 0.646 µM
[2]
  Ki: 0.138 µM
[3]
  Ki: > 10 µM
[4]
  Ki: 0.005 µM

## COC(=O)C1C2CC3CCC1N3C/C2=C\c1ccc(-c2cccc(OC)c2)cc1 (configuration not stated)
[1]
  Ki: 0.114 µM
[2]
  Ki: 0.346 µM
[3]
  Ki: 4.06 µM
[4]
  Ki: 0.0094 µM

## COC(=O)C1C2CC3CCC1N3C/C2=C\C#Cc1cc(F)ccc1F (configuration not stated)
[1]
  Ki: > 10 µM
[2]
  Ki: 0.215 µM
[3]
  Ki: > 10 µM
[4]
  Ki: 1.72 µM

## COC(=O)C1C2CC[C@@H]3C[C@@H]1/C(=C/c1ccc(-c4cc(F)cc(F)c4)cc1)CN23 (some centres not stated)
[1]
  Ki: 0.228 µM
[2]
  Ki: 0.0012 µM
[3]
  Ki: 2.83 µM
[4]
  Ki: 0.0013 µM

## COC(=O)C1C2CC[C@@H]3C[C@@H]1/C(=C/c1ccc(-c4ccc(F)c(F)c4)cc1)CN23 (some centres not stated)
[1]
  Ki: 0.106 µM
[2]
  Ki: 0.295 µM
[3]
  Ki: 3.4 µM
[4]
  Ki: 0.0008 µM

## COC(=O)C1C2CC3CCC1N3C/C2=C\c1ccc(-c2ccc(SC)cc2)s1 (configuration not stated)
[3]
  Ki: > 10 µM

## COC(=O)C1C2CC3CCC1N3C/C2=C\c1ccc(-c2ccc(SC)cc2)cc1 (configuration not stated)
[1]
  Ki: 1.05 µM
[2]
  Ki: 1.08 µM
[3]
  Ki: > 10 µM
[4]
  Ki: 0.062 µM

## COC(=O)C1C2CC3CCC1N3C/C2=C\C#Cc1cccs1 (configuration not stated)
[1]
  Ki: > 10 µM
[2]
  Ki: 0.142 µM
[3]
  Ki: 13.9 µM
[4]
  Ki: 1.57 µM

## COC(=O)C1C2CC3CCC1N3C/C2=C\C#Cc1ccc(C)c(F)c1 (configuration not stated)
[1]
  Ki: 7.07 µM
[2]
  Ki: 0.914 µM
[3]
  Ki: > 10 µM
[4]
  Ki: 0.052 µM

## COC(=O)C1C2CC3CCC1N3C/C2=C\c1ccc(-c2ccccc2OC)cc1 (configuration not stated)
[1]
  Ki: 0.787 µM
[2]
  Ki: 1.34 µM
[3]
  Ki: > 10 µM
[4]
  Ki: 0.0065 µM

## COC(=O)C1C2CC3CCC1N3C/C2=C\C#Cc1ccc(F)cc1 (configuration not stated)
[1]
  Ki: > 10 µM
[2]
  Ki: 0.017 µM
[3]
  Ki: 15.1 µM
[4]
  Ki: 0.104 µM

## COC(=O)C1C2CC3CCC1N3C/C2=C\c1ccc(-c2ccc(F)cc2)cc1 (configuration not stated)
[1]
  Ki: 0.161 µM
[2]
  Ki: 1.39 µM
[3]
  Ki: 1.06 µM
[4]
  Ki: 0.053 µM

Reference: ChEMBL document CHEMBL1145240, “Discovery of novel conformationally constrained tropane-based biaryl and arylacetylene ligands as potent and selective norepinephrine transporter inhibitors and potential antidepressants” (Bioorg Med Chem Lett, 2005)
